# Data taken from patent US20240190880A1 (THE REGENTS OF THE UNIVERSITY OF MICHIGAN, priority 2021, published 2024).
# Biological target: T1, ER (Homo sapiens, UniProt P03372)
# T1 construct: host or cells: T47D and MCF7 human breast cancer cells
# T1 sequence (P03372 1-595): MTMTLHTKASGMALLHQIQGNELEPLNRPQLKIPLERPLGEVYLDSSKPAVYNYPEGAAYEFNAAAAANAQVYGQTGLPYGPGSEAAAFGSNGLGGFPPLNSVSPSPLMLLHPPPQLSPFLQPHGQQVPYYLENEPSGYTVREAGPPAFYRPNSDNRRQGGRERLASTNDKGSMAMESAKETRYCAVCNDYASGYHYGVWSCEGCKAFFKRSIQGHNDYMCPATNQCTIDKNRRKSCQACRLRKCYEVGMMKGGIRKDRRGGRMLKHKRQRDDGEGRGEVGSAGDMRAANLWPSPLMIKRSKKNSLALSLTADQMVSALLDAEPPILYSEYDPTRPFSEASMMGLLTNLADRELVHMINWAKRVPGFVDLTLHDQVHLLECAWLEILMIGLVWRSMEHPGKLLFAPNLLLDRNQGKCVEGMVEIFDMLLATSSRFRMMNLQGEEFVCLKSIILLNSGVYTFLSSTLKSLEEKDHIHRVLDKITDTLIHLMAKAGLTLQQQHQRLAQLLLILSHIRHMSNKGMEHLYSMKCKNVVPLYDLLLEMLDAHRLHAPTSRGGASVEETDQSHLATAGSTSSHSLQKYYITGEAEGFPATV
# Experiment: ER degradation activity, in-cell western blot analysis in T47D cells
# Assay type: cell-based
# Conditions: 16 hours, Table A does not say which cell line (T47D or MCF7), read-out: Potency (DC50)
# Method in brief: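 Cells were seeded overnight, exposed to diluted compounds for 16 hours, then stained with primary antibodies and with infrared-labelled secondary antibodies (1:1000, 1 h RT). Plates were scanned on a CLX reader, and ER levels were normalised to DMSO-treated wells.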
row,Compound,DC50 [nM]
1,"C[C@@H]1Cc2c([nH]c3ccccc23)[C@@H](c2c(F)cc(N3CCC(N4CCC(CN5Cc6cc7c(cc6C5)C(=O)N(C5CCC(=O)NC5=O)C7)CC4)CC3)cc2F)N1CC(F)F (stereo partly drawn) [E 86, 3-(6-((1′-(4-((1R,3R)-2-(2,2-difluoroethyl)-3-methyl-2,3,4,9-tetrahydro-1H-pyrido[3,4-b]indol-1-yl)-3,5-difluorophenyl)-[1,4′-bipiperidin]-4-yl)methyl)-1-oxo-3,5,6,7-tetrahydropyrrolo[3,4-f]isoindol-2(1H)-yl)piperidine-2,6-dione]",10 to 100
2,"C[C@@H]1Cc2c([nH]c3ccccc23)[C@@H](c2c(F)cc(N3CCC(N4CCC(N5Cc6cc7c(cc6C5)C(=O)N(C5CCC(=O)NC5=O)C7=O)CC4)CC3)cc2F)N1CC(F)F (stereo partly drawn) [E 87, 6-(1′-(4-((1R,3R)-2-(2,2-difluoroethyl)-3-methyl-2,3,4,9-tetrahydro-1H-pyrido[3-4-b]indol-1-yl)-3,5-difluorophenyl)-[1,4′-bipiperidin]-4-yl)-2-(2,6-dioxopiperidin-3-yl)-6,7-dihydropyrrolo[3,4-f]isoindole-1,3(2H,5H)-dione]",> 100
3,"C[C@@H]1Cc2c([nH]c3ccccc23)[C@@H](c2c(F)cc(N3CCC(N4Cc5cc6c(cc5C4)C(=O)N(C4CCC(=O)NC4=O)C6=O)CC3)cc2F)N1CC(F)F (stereo partly drawn) [E 88, 6-(1-(4-((1R,3R)-2-(2,2-difluoroethyl)-3-methyl-2,3,4,9-tetrahydro-1H-pyrido[3,4-b]indol-1-yl)-3,5-difluorophenyl)piperidin-4-yl)-2-(2,6-dioxopiperidin-3-yl)-6,7-dihydropyrrolo[3,4-f]isoindole-1,3(2H,5H)-dione]",> 100
4,"C[C@@H]1Cc2c([nH]c3ccccc23)[C@@H](c2c(F)cc(N3CCC(CN4Cc5cc6c(cc5C4)C(=O)N(C4CCC(=O)NC4=O)C6=O)CC3)cc2F)N1CC(F)F (stereo partly drawn) [E 89, 6-((1-(4-((1R,3R)-2-(2,2-difluoroethyl)-3-methyl-2,3,4,9-tetrahydro-1H-pyrido[3,4-b]indol-1-yl)-3,5-difluorophenyl)piperidin-4-yl)methyl)-2-(2,6-dioxopiperidin-3-yl)-6,7-dihydropyrrolo[3,4-f]isoindole-1,3(2H,5H)-dione]",> 100
5,"C[C@@H]1Cc2c([nH]c3ccccc23)[C@@H](c2c(F)cc(N3CC[C@@H](CN4CCC(C(=O)N5Cc6cc7c(cc6C5)C(=O)N(C5CCC(=O)NC5=O)C7)CC4)C3)cc2F)N1CC(F)F (stereo partly drawn) [E 90, 3-(6-(1-(((S)-1-(4-((1R,3R)-2-(2,2-difluoroethyl)-3-methyl-2,3,4,9-tetrahydro-1H-pyrido[3,4-b]indol-1-yl)-3,5-difluorophenyl)pyrrolidin-3-yl)methyl)piperidine-4-carbonyl)-1-oxo-3,5,6,7-tetrahydropyrrolo[3,4-f]isoindol-2(1H)-yl)piperidine-2,6-dione]",< 10
6,"C[C@@H]1Cc2c([nH]c3ccccc23)[C@@H](c2c(F)cc(N3CCCC(CN4CCC(C(=O)N5Cc6cc7c(cc6C5)C(=O)N(C5CCC(=O)NC5=O)C7)CC4)C3)cc2F)N1CC(F)F (stereo partly drawn) [E 92, 3-(6-(1-((1-(4-((1R,3R)-2-(2,2-difluoroethyl)-3-methyl-2,3,4,9-tetrahydro-1H-pyrido[3,4-b]indol-1-yl)-3,5-difluorophenyl)piperidin-3-yl)methyl)piperidine-4-carbonyl)-1-oxo-3,5,6,7-tetrahydropyrrolo[3,4-f]isoindol-2(1H)-yl)piperidine-2,6-dione]",< 10
7,"C[C@@H]1Cc2c([nH]c3ccccc23)[C@@H](c2c(F)cc(N3CCC(N4CCC(CC(=O)N5Cc6cc7c(cc6C5)C(=O)N(C5CCC(=O)NC5=O)C7)CC4)CC3)cc2F)N1CC(F)F (stereo partly drawn) [E 94, 3-(6-(2-(1′-(4-((1R,3R)-2-(2,2-difluoroethyl)-3-methyl-2,3,4,9-tetrahydro-1H-pyrido[3,4-b]indol-1-yl)-3,5-difluorophenyl)-[1,4′-bipiperidin]-4-yl)acetyl)-1-oxo-3,5,6,7-tetrahydropyrrolo[3,4-f]isoindol-2(1H)-yl)piperidine-2,6-dione]",< 10
8,"C[C@@H]1Cc2c([nH]c3ccccc23)[C@@H](c2c(F)cc(N3CCC(N4CCN(CC(=O)N5Cc6cc7c(cc6C5)C(=O)N(C5CCC(=O)NC5=O)C7)CC4)CC3)cc2F)N1CC(F)F (stereo partly drawn) [E 96, 3-(6-(2-(4-(1-(4-((1R,3R)-2-(2,2-difluoroethyl)-3-methyl-2,3,4,9-tetrahydro-1H-pyrido[3,4-b]indol-1-yl)-3,5-difluorophenyl)piperidin-4-yl)piperazin-1-yl)acetyl)-1-oxo-3,5,6,7-tetrahydropyrrolo[3,4-f]isoindol-2(1H)-yl)piperidine-2,6-dione]",< 10
9,"C[C@@H]1Cc2c([nH]c3ccccc23)[C@@H](c2c(F)cc(N3CCC4(CC3)CC(C(=O)N3CCC(CN5Cc6cc7c(cc6C5)C(=O)N(C5CCC(=O)NC5=O)C7=O)CC3)C4)cc2F)N1CC(F)F (stereo partly drawn) [E 99, 6-((1-(7-(4-((1R,3R)-2-(2,2-difluoroethyl)-3-methyl-2,3,4,9-tetrahydro-1H-pyrido[3,4-b]indol-1-yl)-3,5-difluorophenyl)-7-azaspiro[3.5]nonane-2-carbonyl)piperidin-4-yl)methyl)-2-(2,6-dioxopiperidin-3-yl)-6,7-dihydropyrrolo[3,4-f]isoindole-1,3(2H,5H)-dione]",10 to 100

# Next, values leading:
row,DC50 [nM],Compound
1,< 10,"C[C@@H]1Cc2c([nH]c3ccccc23)[C@@H](c2c(F)cc(N3CCC4(CN(C(=O)CN5Cc6cc7c(cc6C5)C(=O)N(C5CCC(=O)NC5=O)C7=O)C4)C3)cc2F)N1CC(F)F (stereo partly drawn) [E 83, 6-(2-(6-(4-((1R,3R)-2-(2,2-difluoroethyl)-3-methyl-2,3,4,9-tetrahydro-1H-pyrido[3,4-b]indol-1-yl)-3,5-difluorophenyl)-2,6-diazaspiro[3.4]octan-2-yl)-2-oxoethyl)-2-(2,6-dioxopiperidin-3-yl)-6,7-dihydropyrrolo[3,4-f]isoindole-1,3(2H,5H)-dione]"
2,< 10,"C[C@@H]1Cc2c([nH]c3ccccc23)[C@@H](c2c(F)cc(N3CC[C@@H](CN4CCC(C(=O)N5Cc6cc7c(cc6C5)C(=O)N(C5CCC(=O)NC5=O)C7=O)CC4)C3)cc2F)N1CC(F)F (stereo partly drawn) [E 91, 6-(1-(((S)-1-(4-((1R,3R)-2-(2,2-difluoroethyl)-3-methyl-2,3,4,9-tetrahydro-1H-pyrido[3,4-b]indol-1-yl)-3,5-difluorophenyl)pyrrolidin-3-yl)methyl)piperidine-4-carbonyl)-2-(2,6-dioxopiperidin-3-yl)-6,7-dihydropyrrolo[3,4-f]isoindole-1,3(2H,5H)-dione]"
3,< 10,"C[C@@H]1Cc2c([nH]c3ccccc23)[C@@H](c2c(F)cc(N3CCC(N4CCC(CC(=O)N5Cc6cc7c(cc6C5)C(=O)N(C5CCC(=O)NC5=O)C7=O)CC4)CC3)cc2F)N1CC(F)F (stereo partly drawn) [E 93, 6-(2-(1′-(4-((1R,3R)-2-(2,2-difluoroethyl)-3-methyl-2,3,4,9-tetrahydro-1H-pyrido[3,4-b]indol-1-yl)-3,5-difluorophenyl)-[1,4′-bipiperidin]-4-yl)acetyl)-2-(2,6-dioxopiperidin-3-yl)-6,7-dihydropyrrolo[3,4-f]isoindole-1,3(2H,5H)-dione]"
4,< 10,"C[C@@H]1Cc2c([nH]c3ccccc23)[C@@H](c2c(F)cc(N3CCC(N4CCN(CC(=O)N5Cc6cc7c(cc6C5)C(=O)N(C5CCC(=O)NC5=O)C7=O)CC4)CC3)cc2F)N1CC(F)F (stereo partly drawn) [E 95, 6-(2-(4-(1-(4-((1R,3R)-2-(2,2-difluoroethyl)-3-methyl-2,3,4,9-tetrahydro-1H-pyrido[3,4-b]indol-1-yl)-3,5-difluorophenyl)piperidin-4-yl)piperazin-1-yl)acetyl)-2-(2,6-dioxopiperidin-3-yl)-6,7-dihydropyrrolo[3,4-f]isoindole-1,3(2H,5H)-dione]"
5,10 to 100,"C[C@@H]1Cc2c([nH]c3ccccc23)[C@@H](c2c(F)cc(N3CC4(CCN(CC(=O)N5Cc6cc7c(cc6C5)C(=O)N(C5CCC(=O)NC5=O)C7=O)CC4)C3)cc2F)N1CC(F)F (stereo partly drawn) [E 97, 6-(2-(2-(4-((1R,3R)-2-(2,2-difluoroethyl)-3-methyl-2,3,4,9-tetrahydro-1H-pyrido[3,4-b]indol-1-yl)-3,5-difluorophenyl)-2,7-diazaspiro[3.5]nonan-7-yl)acetyl)-2-(2,6-dioxopiperidin-3-yl)-6,7-dihydropyrrolo[3,4-f]isoindole-1,3(2H,5H)-dione]"
6,< 10,"C[C@@H]1Cc2c([nH]c3ccccc23)[C@@H](c2c(F)cc(N3CC4(CCN(CC(=O)N5Cc6cc7c(cc6C5)C(=O)N(C5CCC(=O)NC5=O)C7)CC4)C3)cc2F)N1CC(F)F (stereo partly drawn) [E 98, 3-(6-(2-(2-(4-((1R,3R)-2-(2,2-difluoroethyl)-3-methyl-2,3,4,9-tetrahydro-1H-pyrido[3,4-b]indol-1-yl)-3,5-difluorophenyl)-2,7-diazaspiro[3.5]nonan-7-yl)acetyl)-1-oxo-3,5,6,7-tetrahydropyrrolo[3,4-f]isoindol-2(1H)-yl)piperidine-2,6-dione]"
